Assays:
[1] = system: HEK293 cells overexpressing APOL1 G2; assay: APOL1 G2 HEK293 cell rescue assay (reversal of cell death caused by overexpression of APOL1); assay type: cell-based; settings: Homo sapiens, HEK293, HEK293 overexpressing APOL1 G2; geometric mean of at least 2 assay runs; † = single assay run
Summary of the method: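 EC50 is the half-maximal effective concentration for reversing cell death driven by APOL1 G2 overexpression in HEK293 cells. Reported as geometric mean of at least 2 runs on separate days, each run averaging duplicate wells per plate; some values from a single run.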

[2] = system: Trypanosoma brucei Lister 427 VSG221 with APOL1 G0 recombinant protein; assay: APOL1 G0 trypanosome cell rescue assay (Example B5); assay type: cell-based; settings: Trypanosoma brucei, 20 h, read-out: APOL1 G0 Trypanosome Rescue EC50, Trypanosoma brucei Lister 427 VSG221 with APOL1 G0 recombinant protein, 20 hours, CellTiter-Glo; geometric mean of at least 2 assay runs; † = single assay run
Summary of the method: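 Recombinant mature APOL1 (residues 28-398, His-tag removed, E. coli-expressed, refolded from inclusion bodies, DDM buffer) at […] added with 250 trypanosomes/well in modified HMI-9 media. Duplicate 11-point 2-fold compound series, 0.4% DMSO; 20 h at 37° C, 5% CO2, then CellTiter-Glo luminescence for viability.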

Row | Structure (SMILES) | EC50 [1] [nM] | EC50 [2] [nM]
1 | CS(=O)(=O)c1ccc(OCCN2CCCC3(CC2)C(=O)Nc2ccccc23)cc1 (centres unmarked) [Compound 26, 1-(2-(4-(methylsulfonyl)phenoxy)ethyl)spiro[azepane-4,3′-indolin]-2′-one] | 1760 | > 4000
2 | CN1C(=O)CCc2cc(OCCN3CCC4(CC3)C(=O)Nc3ccc(Cl)cc34)ccc21 [Compound 27, 5-chloro-1′-[2-[(1-methyl-2-oxo-3,4-dihydroquinolin-6-yl)oxy]ethyl]spiro[indoline-3,4′-piperidine]-2-one] | 62 | 201
3 | O=C1CCc2cc(OCCN3CCC4(CC3)C(=O)Nc3ccc(Cl)cc34)cnc2N1CCO [Compound 192, 5-chloro-1′-(2-{[8-(2-hydroxyethyl)-7-oxo-5,6,7,8-tetrahydro-1,8-naphthyridin-3-yl]oxy}ethyl)-1,2-dihydrospiro[indole-3,4′-piperidin]-2-one] | 41.1 | 108
4 | CC(=O)N(C)CCS(=O)(=O)c1ccc(OCCN2CCC3(CC2)C(=O)Nc2ccc(Cl)cc23)cc1 [Compound 193, N-{2-[4-(2-{5-chloro-2-oxo-1,2-dihydrosiro[indole-3,4′-piperidin]-1′-yl}ethoxy)benzenesulfonyl]ethyl}-N-methylacetamide] | 155 | 200
5 | CS(=O)(=O)C1(c2ccc(OCCN3CCC4(CC3)C(=O)Nc3ccc(Cl)cc34)cc2)COC1 [Compound 195, 5-chloro-1′-{2-[4-(3-methanesulfonyloxetan-3-yl)phenoxy]ethyl}-1,2-dihydrospiro[indole-3,4′-piperidin]-2-one] | 39.4 | 48.2
6 | O=C1Nc2ccc(Cl)cc2C12CCN(CCOc1ccc3c(c1)CCS3(=O)=O)CC2 [Compound 196, 5-(2-{5-chloro-2-oxo-1,2-dihydrospiro[indole-3,4′-piperidin]-1′-yl}ethoxy)-2,3-dihydro-1λ^6-benzothiophene-1,1-dione] | 91.9 | 160
7 | CS(=O)(=O)c1ccc(OCCN2CCC3(CC2)C(=O)Nc2ccc(Cl)cc23)cc1C(F)F [Compound 197, 5-chloro-1′-{2-[3-(difluoromethyl)-4-methanesulfonylphenoxy]ethyl}-1,2-dihydrospiro[indole-3,4′-piperidin]-2-one] | 32.3 | 30.3
8 | O=C1Nc2ccc(Cl)cc2C12CCN(CCOc1ccc(S(=O)(=O)CCO)cc1)CC2 [Compound 198, 5-chloro-1′-{2-[4-(2-hydroxyethanesulfonyl)phenoxy)ethyl}-1,2-dihydrospiro[indole-3,4′-piperidin]-2-one] | 63.1 | 107
9 | CS(=O)(=O)Nc1ccc(OCCN2CCC3(CC2)C(=O)Nc2ccc(Cl)cc23)cc1 [Compound 214, N-[4-(2-{5-chloro-2-oxo-1,2-dihydrospiro[indole-3,4′-piperidin]-1′-yl}ethoxy)phenyl]methanesulfonamide] | 79 | 250
10 | O=C1Nc2ccc(Cl)cc2C12CCN(CCOc1ccc(S(=O)(=O)[C@H]3C[C@H](O)C3)cc1)CC2 [Compound 215, 5-chloro-1′-[2-(4-{[(trans)-3-hydroxycyclobutyl]sulfonyl}phenoxy)ethyl]-1,2-dihydrospiro[indole-3,4′-piperidin]-2-one] | 79.8 | 70.1
11 | CS(=O)(=O)c1ccc(OCCN2CCC3(CC2)C(=O)Nc2ccc(Cl)cc23)cc1C(O)CO (centres unmarked) [Compound 216, 5-chloro-1′-{2-[3-(1,2-dihydroxyethyl)-4-methanesulfonylphenoxy]ethyl}-1,2-dihydrospiro[indole-3,4′-piperidin]-2-one] | 281 | 629
12 | O=C1CCc2cc(OCCN3CCC4(CC3)C(=O)Nc3ccc(Cl)cc34)ccc2N1[C@H]1C[C@H](O)C1 [Compound 224, 5-chloro-1′-[2-({2-oxo-1-[(trans)-3-hydroxycyclobutyl]-1,2,3,4-tetrahydroquinolin-6-yl}oxy)ethyl]-1,2-dihydrospiro[indole-3,4′-piperidin]-2-one] | 38.6 | 66
13 | O=C1Nc2ccc(Cl)cc2C12CCN(CCOc1ccc(S(=O)(=O)C3(CO)CC3)cc1)CC2 [Compound 225, 5-chloro-1′-[2-(4-{[1-(hydroxymethyl)cyclopropyl]sulfonyl}phenoxy)ethyl]-1,2-dihydrospiro[indole-3,4′-piperidin]-2-one] | 32.6 | 35.2
14 | CNC(=O)C1(S(=O)(=O)c2ccc(OCCN3CCC4(CC3)C(=O)Nc3ccc(Cl)cc34)cc2)CC1 [Compound 226, 1-[4-(2-{5-chloro-2-oxo-1,2-dihydrospiro[indole-3,4′-piperidin]-1′-yl}ethoxy)benzenesulfonyl]-N-methylcyclopropane-1-carboxamide] | 43 | 80
15 | CN(C)C(=O)C1(S(=O)(=O)c2ccc(OCCN3CCC4(CC3)C(=O)Nc3ccc(Cl)cc34)cc2)CC1 [Compound 227, 1-[4-(2-{5-chloro-2-oxo-1,2-dihydrospiro[indole-3,4′-piperidin]-1′-yl}ethoxy)benzenesulfonyl]-N,N-dimethylcyclopropane-1-carboxamide] | 47 | 142
16 | O=C1Nc2ccc(Cl)cc2C12CCN(CCOc1ccc(S(=O)(=O)C3(C(=O)N4CCC4)CC3)cc1)CC2 [Compound 228, 1′-[2-(4-{[1-(azetidine-1-carbonyl)cyclopropyl]sulfonyl}phenoxy)ethyl]-5-chloro-1,2-dihydrospiro[indole-3,4′-piperidin]-2-one] | 101 | 196
17 | CNC(=O)c1ccc(OCCN2CCC3(CC2)C(=O)Nc2ccc(Cl)cc23)cc1F [Compound 229, 4-(2-{5-chloro-2-oxo-1,2-dihydrospiro[indole-3,4′-piperidin]-1′-yl}ethoxy)-2-fluoro-N-methylbenzamide] | 128 | 417
18 | CN(C)C(=O)c1ccc(OCCN2CCC3(CC2)C(=O)Nc2ccc(Cl)cc23)cc1F [Compound 230, 4-(2-{5-chloro-2-oxo-1,2-dihydrospiro[indole-3,4′-piperidin]-1′-yl}ethoxy)-2-fluoro-N,N-dimethylbenzamide] | 98.7 | 427
19 | O=C(c1ccc(OCCN2CCC3(CC2)C(=O)Nc2ccc(Cl)cc23)cc1F)N1CCOCC1 [Compound 231, 5-chloro-1′-{2-[3-fluoro-4-(morpholine-4-carbonyl)phenoxy]ethyl}-1,2-dihydrospiro[indole-3,4′-piperidin]-2-one] | 42 | 135
20 | O=C(c1ccc(OCCN2CCC3(CC2)C(=O)Nc2ccc(Cl)cc23)cc1F)N1CCS(=O)(=O)CC1 [Compound 232, 4-[4-(2-{5-chloro-2-oxo-1,2-dihydrospiro[indole-3,4′-piperidin]-1′-yl}ethoxy)-2-fluorobenzoyl]-1λ^6-thiomorpholine-1,1-dione] | 39.2 | 97.6
21 | CS(=O)(=O)C1CN(C(=O)c2ccc(OCCN3CCC4(CC3)C(=O)Nc3ccc(Cl)cc34)cc2F)C1 [Compound 233, 5-chloro-1′-{2-[3-fluoro-4-(3-methanesulfonyl-azetidine-1-carbonyl)phenoxy]ethyl}-1,2-dihydrospiro[indole-3,4′-piperidin]-2-one] | 57.7 | 81.7
22 | O=C(c1ccc(OCCN2CCC3(CC2)C(=O)Nc2ccc(Cl)cc23)cc1F)N1CCC1 [Compound 234, 1′-{2-[4-(azetidine-1-carbonyl)-3-fluorophenoxy]ethyl}-5-chloro-1,2-dihydrospiro[indole-3,4′-piperidin]-2-one] | 80.3 | 272
23 | O=C(c1ccc(OCCN2CCC3(CC2)C(=O)Nc2ccc(Cl)cc23)cc1F)N1CC(O)C1 [Compound 235, 5-chloro-1′-{2-[3-fluoro-4-(3-hydroxyazetidine-1-carbonyl)phenoxy]ethyl}-1,2-dihydrospiro[indole-3,4′-piperidin]-2-one] | 59.8 | 270
24 | NC1CN(C(=O)c2ccc(OCCN3CCC4(CC3)C(=O)Nc3ccc(Cl)cc34)cc2F)C1 [Compound 236, 1′-{2-[4-(3-aminoazetidine-1-carbonyl)-3-fluorophenoxy]ethyl}-5-chloro-1,2-dihydrospiro[indole-3,4′-piperidin]-2-one] | 45 | 766
25 | CS(=O)(=O)NC1CN(C(=O)c2ccc(OCCN3CCC4(CC3)C(=O)Nc3ccc(Cl)cc34)cc2F)C1 [Compound 237, N-{1-[4-(2-{5-chloro-2-oxo-1,2-dihydrospiro[indole-3,4′-piperidin]-1′-yl}ethoxy)-2-fluorobenzoyl]azetidin-3-yl} methanesulfonamide] | 238 | 132
26 | N#Cc1ccc2c(c1)C1(CCN(CCOc3ccc(C(N)=O)c(F)c3)CC1)C(=O)N2 [Compound 238, 4-(2-{5-cyano-2-oxo-1,2-dihydrospiro[indole-3,4′-piperidin]-1′-yl}ethoxy)-2-fluorobenzamide] | 85.2 | 1590
27 | O=C(c1ccc(OCCN2CCC3(CC2)C(=O)Nc2ccc(Cl)cc23)cc1F)N1CC2(C1)CS(=O)(=O)C2 [Compound 239, 6-[4-(2-{5-chloro-2-oxo-1,2-dihydrospiro[indole-3,4′-piperidin]-1′-yl}ethoxy)-2-fluorobenzoyl]-2λ^6-thia-6-azaspiro[3.3]heptane-2,2-dione] | 77.9 | 40
28 | Cc1n[nH]cc1-c1ccc(OCCN2CCC3(CC2)C(=O)Nc2ccc(Cl)cc23)cc1 [Compound 244, 5-chloro-1′-{2-[4-(5-methyl-1H-pyrazol-4-yl)phenoxy]ethyl}-1,2-dihydrospiro[indole-3,4′-piperidin]-2-one] | 70.4 | 141

From US12344610B2, “APOL1 inhibitors and methods of use” (Maze Therapeutics, Inc., priority 2022, dated 2025)
